What was measured:
Type in all cases: in vivo
[1] = Preventive administration before an expected migraine in a subject with chronic repetitive migraine; settings: 70 kg male of Example 2, 20 g 3 times a day, days 90 to 130, started about 5-6 days before expected onset
Text: The subject of Example 2 discontinues the administration after 35 days, is migraine free for two months and a further episode occurs and Example 2 is followed again, counting the start of this second migraine as day 1, except that after ceasing the administration on day 35, the subject begins administration again on day 90 (about 5-6 days before an expected onset of a further migraine based on this subject's history) and continues administration for an additional 40 days (that is for days 90 to 130).

[2] = Self-administration at migraine onset in subjects with chronic repetitive migraine; settings: 70 kg male, 20 g at migraine onset, 3 times a day for 35 days
Text: There is no known or suspect event triggering these events. The subject is instructed to self-administer 20 g of glyceryl tris(3-hydroxybutyrate) upon the onset of the migraine and to continue to self-administer at this dosage 3 times a day for 35 days.
A 60 kg person presents with chronic repetitive migraine with a similar repetitive pattern to the subject of Examples 2 and 3. They are instructed to self-administer 15 g of glyceryl tris(3-hydroxybutyrate) upon the onset of the migraine, rather than the 20 g as in Examples 2 and 3, but otherwise to follow the regimen in Examples 2 and 3.

[3] = Self-administration at onset of prodromal visual disturbances in a subject with episodic migraines; settings: 60 kg female, 15 g orally within minutes of visual disturbances, 3 times a day for 4 days
Text: A 60 kg person presents with episodic migraines occurring one such headache occurring and then not again for a number of months. At each event, shortly before the headache begins, the subject has visual disturbances classic of migraine. The subject is requested to self-administer 15 grams of glyceryl tris(3-hydroxybutyrate) upon noticing the next time visual disturbance of this type appear and continue to do so 3 times a day for 4 days. The subject notices such symptoms, and ingests 15 g of glyceryl tris(3-hydroxybutyrate) within minutes of noticing the symptoms.

## CC(O)CC(=O)OCC(COC(=O)CC(C)O)OC(=O)CC(C)O (stereo not shown) [glyceryl tris(3-hydroxybutyrate)]
[1]
  occurrence of the expected migraine (days 94-95) during the administration period: no such migraine appears
[2]
  duration of the usual initial migraine, versus past history: shorter duration
  frequency of the repetitive migraines, versus past history: further reduced in frequency
  intensity of the repetitive migraines, versus past history: further reduced in frequency and intensity
  severity of the usual initial migraine, versus past history: less severe
[3]
  duration of the headache that follows, versus past episodes: lesser duration
  intensity of the headache that follows, versus past episodes: lesser intensity

From US20180177753A1, “GLYCERYL 3-HYDROXYBUTYRATES FOR MIGRAINE SYMPTOM MANAGEMENT” (NeuroEnergy Ventures, Inc., priority 2016, published 2018)
